Experimental data taken from US8772199B2, “Herbicidal compositions for tolerant or resistant maize crops” (Bayer Intellectual Property GmbH, priority 1998, dated 2014).

How the values were obtained:
Assay in all cases: Field trial with maize, herbicidal action
Type in all cases: in vivo
Cassia obtusifolia = settings: 925 g of a.s./ha; application 3-leaf stage; scoring 21 days after application
Protocol: (§1) Transgenic maize plants with a resistance to one or more herbicides (A) together with typical weed plants were grown in the open on 2×5 m plots under natural field conditions; alternatively, weed infestation occurred naturally when the maize plants were grown.
(§2) […] The damage to, and the development of, all aerial parts of the plants was recorded. Scoring was done on the basis of a percentage sale (100% action=all plants destroyed; 50% action=50% of the plants and green parts of the plants destroyed; 0% action=no recognizable effect=like control plot. The mean of the score values of in each case 4 plots was calculated.

Fagopyrum esculentum = settings: 2.5 g of a.s./ha; application 2- to 4-leaf stage; scoring 26 days after application
Protocol: as §1, §2

Lamium amplexicaule = settings: 2.5 g of a.s./ha; application 1-leaf stage; scoring 17 days after application
Protocol: as §1, §2

Lolium multiflorum = settings: 2.5 g of a.s./ha; application 2- to 4-leaf stage; scoring 26 days after application
Protocol: as §1, §2

| Structure (SMILES) | Herbicidal action (%) against Cassia obtusifolia (Cassia obtusifolia) [%] | Herbicidal action (%) against Fagopyron esculentum (Fagopyrum esculentum) [%] | Herbicidal action (%) against Lamium amplexicaule (Lamium amplexicaule) [%] | Herbicidal action (%) against Lolium multiflorum (Lolium multiflorum) [%] |
| --- | --- | --- | --- | --- |
| CCC(CC)Nc1c([N+](=O)[O-])cc(C)c(C)c1[N+](=O)[O-] [(B2.1), N-(1-ethylpropyl)-2,6-dinitro-3,4-xylidine] | 0 |  |  |  |
| COc1nc(C)nc(NC(=O)NS(=O)(=O)c2cc(I)ccc2C(=O)O)n1 [(B2.3), 4-iodo-2-(4-methoxy-6-methyl-1,3,5-triazin-2-ylcarbamoylsulfamoyl)benzoic acid] |  | 85 | 55 | 84 |
